The results in this text go back to patent US4327097A, “Novel penicillins” (Toyama Chemical Co., Ltd., priority 1974, dated 1982).

The subject of one data set is Proteus rettgeri. The data set is described as follows: MIC against clinical isolates. The note with it: Table 5-6, clinical isolate; unit assumed. Format: cell-based.
For data set [1], the system named is Klebsiella pneumoniae. The data set is described as follows: MIC against clinical isolates. Type of data set: cell-based. Particulars: Table 5-4, clinical isolate; unit assumed.
The test system of data set [2] is β-lactamase, Pseudomonas aeruginosa GN 238. The data set is described as follows: Resistant activity against β-lactamase, iodometric assay. Type of data set: biochemical. The note with it: β-lactamase from Pseudomonas aeruginosa GN 238; Potassium Penicillin G = 100. An outline of the steps:
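Crude β-lactamase was the sonicated-cell supernatant from P. aeruginosa GN 238, grown 6 h at 37 °C and washed in 0.1 M phosphate pH 7.0. Compound stability to the enzyme measured iodometrically; values are relative activity with potassium penicillin G set at 100.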

The subject of a further data set is Escherichia coli. The data set is described as follows: MIC against clinical isolates. Format: cell-based. The note with it: Table 5-2, clinical isolate; unit assumed.
The next data set deals with Salmonella typhi-murium. The data set is described as follows: MIC against clinical isolates. Type of data set: cell-based. Particulars: Table 5-5, clinical isolate; unit assumed.
The next data set has as its system Proteus vulgaris. The data set is described as follows: MIC against clinical isolates. Type of data set: cell-based. The note with it: Table 5-6, clinical isolate; unit assumed.
Another data set has as its system Staphylococcus aureus. The data set is described as follows: MIC against clinical isolates. Type of data set: cell-based. The note with it: Table 5-1, clinical isolate; unit assumed.
The subject of a further data set is Shigella flexneri. The data set is described as follows: MIC against clinical isolates. Particulars: Table 5-5, clinical isolate; unit assumed. Format: cell-based. The method, then: (§1) The minimum inhibitory concentration (MIC) was determined by the plate method disclosed in "Chemotherapy" (Japan), Vol. 16, (1968), pages 98-99. The culture medium used was a Heart infusion agar (pH 7.4). The number of the cells per plate used in the inoculum was 10^4 (10^6 cells/ml).
(§2) MIC was determined in the same manner as in the preceding paragraph (1).

The next data set relates to Shigella sonnei. The data set is described as follows: MIC against clinical isolates. Type of data set: cell-based. Particulars: Table 5-5, clinical isolate; unit assumed. The method, then: as §1, §2
For a further data set, the system named is Proteus mirabilis. The data set is described as follows: MIC against clinical isolates. Format: cell-based. Particulars: Table 5-6, clinical isolate; unit assumed.
For data set [3], the system named is Staphylococcus aureus 209p. The data set is described as follows: MIC, plate method, standard strains. Format: cell-based. The note with it: Table 3, standard strain, Heart infusion agar pH 7.4; unit assumed. An outline of the steps:
(§3)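 Agar plate dilution on Heart infusion agar (pH 7.4); inoculum 10^4 cells per plate from a 10^6 cells/ml suspension. MIC taken as the lowest concentration inhibiting growth.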

For data set [4], the system named is Klebsiella pneumoniae. The data set is described as follows: MIC, plate method, standard strains. Format: cell-based. Particulars: Table 3, standard strain; unit assumed. An outline of the steps: as §3
The subject of the next data set is Proteus vulgaris 3027. The data set is described as follows: MIC, plate method, standard strains. Format: cell-based. The note with it: Table 3, standard strain; unit assumed. An outline of the steps: as §3
The next data set has as its system Escherichia coli NIHJ. The data set is described as follows: MIC, plate method, standard strains. Format: cell-based. Particulars: Table 3, standard strain; unit assumed. An outline of the steps:
as §3

The test system of data set [5] is Pseudomonas aeruginosa I.F.O. The data set is described as follows: MIC, plate method, standard strains. Particulars: Table 3, standard strain; unit assumed. Type of data set: cell-based. An outline of the steps: as §3
A further data set deals with Pseudomonas aeruginosa. The data set is described as follows: MIC against clinical isolates. Type of data set: cell-based. The note with it: Table 5-3, clinical isolate, unit assumed.
For another data set, the system named is mouse. The data set is described as follows: Toxicity, LD50 i.v. in mouse. Format: in vivo. Particulars: i.v. in mouse having a weight of 19±1 g. The text has this: The present penicillins and cephalosporins have generally low toxicity.

In brackets after ≈: the same amount, converted by molar mass.

In turn, `CC(C)N1CCN(C(=O)NC(C(=O)NC2C(=O)N3C2SC(C)(C)C3C(=O)O)c2ccccc2)C(=O)C1=O` (single isomer, unassigned) [Compound 40] registered an MIC Proteus rettgeri with Proteus rettgeri of 6.25 µg/mL (≈ 11.8 µM). Besides, in the data set on Klebsiella pneumoniae [1], the MIC Klebsiella pneumoniae GN 917 is 6.25 µg/mL (≈ 11.8 µM), the MIC Klebsiella pneumoniae GN 4081 came to 100 µg/mL (≈ 188 µM) and the MIC Klebsiella pneumoniae GN 4117 amounted to 50 µg/mL (≈ 94.1 µM). The “Relative activity (%), resistant activity against β-lactamase” value in data set [2] is on record as 15%. In the data set with Escherichia coli, this compound gave an MIC Escherichia coli GN 3452 of 1.57 µg/mL (≈ 2.95 µM), an MIC Escherichia coli GN 3465 of 50 µg/mL (≈ 94.1 µM), an MIC Escherichia coli GN 3481 of 1.57 µg/mL (≈ 2.95 µM) and an MIC Escherichia coli GN 3611 of over 200 µg/mL. In the data set with Escherichia coli, the MIC Escherichia coli K-1 is 1.57 µg/mL (≈ 2.95 µM), the MIC Escherichia coli K-2 is 3.13 µg/mL (≈ 5.89 µM) and the MIC Escherichia coli K-3 is over 200 µg/mL. Besides, the MIC Salmonella typhi-murium SL 2136 in the data set with Salmonella typhi-murium is over 200 µg/mL. Moreover, in the data set on Proteus vulgaris, the MIC Proteus vulgaris was under 0.4 µg/mL. In the data set with Staphylococcus aureus, the MIC Staphylococcus aureus F-1 turned out to be 6.25 µg/mL (≈ 11.8 µM), the MIC Staphylococcus aureus F-2 was determined as 3.13 µg/mL (≈ 5.89 µM), the MIC Staphylococcus aureus F-4 came to 6.25 µg/mL (≈ 11.8 µM) and the MIC Staphylococcus aureus F-5 is over 200 µg/mL. In the data set on Staphylococcus aureus, this compound registered an MIC Staphylococcus aureus MS 8588 of 3.13 µg/mL (≈ 5.89 µM), an MIC Staphylococcus aureus MS 8596 of 3.13 µg/mL (≈ 5.89 µM) and an MIC Staphylococcus aureus MS 8684 of 3.13 µg/mL (≈ 5.89 µM). In the data set with Shigella flexneri, the MIC Shigella flexneri JS 11215 turned out to be 50 µg/mL (≈ 94.1 µM) and the MIC Shigella flexneri JS 11839 was determined as 3.13 µg/mL (≈ 5.89 µM). Further, in the data set on Shigella sonnei, the MIC Shigella sonnei JS 11232 turned out to be 50 µg/mL (≈ 94.1 µM) and the MIC Shigella sonnei JS 11755 came to 3.13 µg/mL (≈ 5.89 µM). The compound further showed an MIC Proteus mirabilis with Proteus mirabilis of under 0.4 µg/mL. Besides, the MIC Staphylococcus aureus 209p in data set [3] stood at 0.4 µg/mL (≈ 0.752 µM). In the data set with Klebsiella pneumoniae [4], this compound had an MIC Klebsiella pneumoniae of 3.13 µg/mL (≈ 5.89 µM). The MIC Proteus vulgaris 3027 with Proteus vulgaris 3027 is 0.4 µg/mL (≈ 0.752 µM). The compound also displayed an MIC Esche--richin coil NIHJ in the data set with Escherichia coli NIHJ of under 0.1 µg/mL. In [5], this compound registered an MIC Pseudomonas aeruginosa I.F.C of 6.25 µg/mL (≈ 11.8 µM). The same compound registered an MIC Pseudomonas aeruginosa GN in the data set with Pseudomonas aeruginosa (strain number not given) of 6.25 µg/mL (≈ 11.8 µM). In the data set with Pseudomonas aeruginosa, this compound registered an MIC Pseudomonas aeruginosa GN 82 of 6.25 µg/mL (≈ 11.8 µM), an MIC Pseudomonas aeruginosa GN 163 of 6.25 µg/mL (≈ 11.8 µM), an MIC Pseudomonas aeruginosa GN 221 of 6.25 µg/mL (≈ 11.8 µM) and an MIC Pseudomonas aeruginosa GN 376 of 3.13 µg/mL (≈ 5.89 µM). In the data set with Pseudomonas aeruginosa, the MIC Pseudomonas aeruginosa GN 383 was found to be 6.25 µg/mL (≈ 11.8 µM), the MIC Pseudomonas aeruginosa GN 1091 was 6.25 µg/mL (≈ 11.8 µM) and the MIC Pseudomonas aeruginosa GN 2987 was 3.13 µg/mL (≈ 5.89 µM).
Regarding `CCN1CCN(C(=O)N[C@@H](C(=O)N[C@@H]2C(=O)N3[C@@H]2SC(C)(C)[C@@H]3C(=O)O)c2ccccc2)C(=O)C1=O`, the LD50 result in the data set with mouse is listed as “greater than 5 g/kg”.
